Results published in patent EP3681856B1, “COMPOUNDS HAVING PRESERVATIVE, ANTIMICROBIAL AND ANTISEPTIC ACTIVITY” (Universita' degli Studi di Milano, priority 2017, dated 2019).

Columns and labels:
Type in all cases: cell-based
[1] = tested on: Candida humilis UMY12 (UNIMI collection); test: disc diffusion test on yeast; conditions: MHA with 2% glucose, 5120 µg/mL, preliminary tests
Procedure: Some preliminary tests were also effected to evaluate the activity against eukaryotic microorganisms such as yeasts.
The disc diffusion method was applied again, using the yeast Candida humilis UMY12 (UNIMI collection).
2% glucose was added to the MHA medium, and the concentration of the suspension amounted to about 3×10^6 CFU/mL. The concentration of the chemical compounds amounted to 5120 µg/mL for both compounds.

[2] = tested on: S. aureus; test: MIC evaluation, broth microdilution method (CLSI); conditions: Staphylococcus aureus, 37°C
Source text: (§1) Tests were then effected on the two bacteria analysed with the agar diffusion test and on two other microorganisms such as Pseudomonas aeruginosa DSM 22644 (PAO1) and Bacillus cereus DSM31 to evaluate the Minimum Inhibitory Concentration (MIC), i.e. the lowest concentration of compound able to inhibit the growth of a microorganism. The method used was the broth microdilution method (CLSI - Clinical and Laboratory Standards Institute). Briefly, the procedure involved the preparation of serial dilutions of the antimicrobial agent (256 to 0.125 mg/1) distributed in a 96-well microtiter plate (microdilution). Each well was then inoculated with the reference microbial strain at the concentration of about […] (0.5 McFarlands). The 96-well microtiter plates were then incubated at 37°C.

[3] = tested on: E. coli; test: MIC evaluation, broth microdilution method (CLSI); conditions: Escherichia coli, 37°C
Source text: as §1

[4] = tested on: Staphylococcus aureus ATCC25923; test: disc diffusion antimicrobial susceptibility test (EUCAST); conditions: MHA, 1000 to 125 µg/mL, 37°C, 16-20 h
Procedure: The antimicrobial susceptibility tests were effected by the disc diffusion method as indicated by EUCAST (European Committee on Antimicrobial Susceptibility Testing). The plates were prepared with Mueller Hinton Agar (MHA) medium into which microbial suspensions of Escherichia coli ATCC25922 and Staphylococcus aureus ATCC25923 were inoculated at a concentration of about 2×10^8 CFU/mL. Sterile discs were then placed on each plate and subsequently inoculated with successive concentrations of the two chemical compounds analysed (domiphen bromide and para-bromo domiphen bromide), together with a positive control (chloramphenicol) and a negative control (MH broth). The plates were then incubated at 37°C in aerobiosis for 16-20 h. After incubation, any inhibition zone due to the potential antimicrobial activity was measured with a ruler, and the activities of the two molecules were compared. In Figure 8 and Figure 9: • TQ= concentration of compound amounting to 1000 µg/mL • 1:2= concentration of compound amounting to 500 µg/mL • 1:4= concentration of compound amounting to 250 µg/mL • 1:8= concentration of compound amounting to 125 µg/mL • CHL= chloramphenicol (antibiotic) • CNEG= negative control (MHB).

[5] = tested on: Pseudomonas aeruginosa DSM 22644 (PAO1); test: MIC evaluation, broth microdilution method (CLSI); conditions: summary statement in words
Source text: as §1

[6] = tested on: Bacillus cereus DSM31; test: MIC evaluation, broth microdilution method (CLSI); conditions: summary statement in words
Source text: as §1

[7] = tested on: Escherichia coli ATCC25922; test: disc diffusion antimicrobial susceptibility test (EUCAST); conditions: MHA, 1000 to 125 µg/mL, 37°C, 16-20 h, compared with domiphen bromide
Procedure: The antimicrobial susceptibility tests were effected by the disc diffusion method as indicated by EUCAST (European Committee on Antimicrobial Susceptibility Testing). The plates were prepared with Mueller Hinton Agar (MHA) medium into which microbial suspensions of Escherichia coli ATCC25922 and Staphylococcus aureus ATCC25923 were inoculated at a concentration of about 2×10^8 CFU/mL. Sterile discs were then placed on each plate and subsequently inoculated with successive concentrations of the two chemical compounds analysed (domiphen bromide and para-bromo domiphen bromide), together with a positive control (chloramphenicol) and a negative control (MH broth). The plates were then incubated at 37°C in aerobiosis for 16-20 h. After incubation, any inhibition zone due to the potential antimicrobial activity was measured with a ruler, and the activities of the two molecules were compared. In Figure 6 and Figure 7: • TQ= concentration of compound amounting to 1000 µg/mL 1:2= concentration of compound amounting to 500 µg/mL • 1:4= concentration of compound amounting to 250 µg/mL • 1:8= concentration of compound amounting to 125 µg/mL • CHL= chloramphenicol (antibiotic) • CNEG= negative control (MHB).

Structure (SMILES) | antimicrobial activity against yeast [1] | MIC [2] | MIC [3] | antimicrobial activity (inhibition zone) towards S. aureus [4] | activity compared with domiphen against Pseudomonas aeruginosa [5] | activity compared with domiphen against Bacillus cereus [6] | antimicrobial activity (inhibition zone) towards E. coli [7]
CCCCCCCCCCCC[N+](C)(C)CCOc1ccccc1 [domiphen bromide, Domiphen bromide, reference compound] | almost the same antimicrobial activity | 1 µg/mL | 8 µg/mL |  |  |  | 
CCCCCCCCCCCC[N+](C)(C)CCOc1ccc(Br)cc1 [compound of formula (Ia), (dodecyldimethyl-2-p-bromophenoxyethyl)ammonium bromide] | almost the same antimicrobial activity | 1 µg/mL | 8 µg/mL | exhibits antimicrobial activity | more active than domiphen | more active than domiphen | comparable with that of domiphen bromide
